Assay results published in ChEMBL document CHEMBL4190187, “Discovery of pyrazolopyrimidine derivatives as novel inhibitors of ataxia telangiectasia and rad3 related protein (ATR)” (Bioorg Med Chem Lett, 2017).
Where “and” joins values, the source holds several entries; their conditions need not be identical. Identical values can stand only once.

Assays:
[1] = target: Serine/threonine-protein kinase ATR (Homo sapiens, UniProt Q13535); assay: Inhibition of human recombinant FLAG-tagged full length ATR expressed in mammalian cell line co-expressing human recombinant cMyc-tagged full length ATRIP
Chain of Serine/threonine-protein kinase ATR (Q13535 whole entry): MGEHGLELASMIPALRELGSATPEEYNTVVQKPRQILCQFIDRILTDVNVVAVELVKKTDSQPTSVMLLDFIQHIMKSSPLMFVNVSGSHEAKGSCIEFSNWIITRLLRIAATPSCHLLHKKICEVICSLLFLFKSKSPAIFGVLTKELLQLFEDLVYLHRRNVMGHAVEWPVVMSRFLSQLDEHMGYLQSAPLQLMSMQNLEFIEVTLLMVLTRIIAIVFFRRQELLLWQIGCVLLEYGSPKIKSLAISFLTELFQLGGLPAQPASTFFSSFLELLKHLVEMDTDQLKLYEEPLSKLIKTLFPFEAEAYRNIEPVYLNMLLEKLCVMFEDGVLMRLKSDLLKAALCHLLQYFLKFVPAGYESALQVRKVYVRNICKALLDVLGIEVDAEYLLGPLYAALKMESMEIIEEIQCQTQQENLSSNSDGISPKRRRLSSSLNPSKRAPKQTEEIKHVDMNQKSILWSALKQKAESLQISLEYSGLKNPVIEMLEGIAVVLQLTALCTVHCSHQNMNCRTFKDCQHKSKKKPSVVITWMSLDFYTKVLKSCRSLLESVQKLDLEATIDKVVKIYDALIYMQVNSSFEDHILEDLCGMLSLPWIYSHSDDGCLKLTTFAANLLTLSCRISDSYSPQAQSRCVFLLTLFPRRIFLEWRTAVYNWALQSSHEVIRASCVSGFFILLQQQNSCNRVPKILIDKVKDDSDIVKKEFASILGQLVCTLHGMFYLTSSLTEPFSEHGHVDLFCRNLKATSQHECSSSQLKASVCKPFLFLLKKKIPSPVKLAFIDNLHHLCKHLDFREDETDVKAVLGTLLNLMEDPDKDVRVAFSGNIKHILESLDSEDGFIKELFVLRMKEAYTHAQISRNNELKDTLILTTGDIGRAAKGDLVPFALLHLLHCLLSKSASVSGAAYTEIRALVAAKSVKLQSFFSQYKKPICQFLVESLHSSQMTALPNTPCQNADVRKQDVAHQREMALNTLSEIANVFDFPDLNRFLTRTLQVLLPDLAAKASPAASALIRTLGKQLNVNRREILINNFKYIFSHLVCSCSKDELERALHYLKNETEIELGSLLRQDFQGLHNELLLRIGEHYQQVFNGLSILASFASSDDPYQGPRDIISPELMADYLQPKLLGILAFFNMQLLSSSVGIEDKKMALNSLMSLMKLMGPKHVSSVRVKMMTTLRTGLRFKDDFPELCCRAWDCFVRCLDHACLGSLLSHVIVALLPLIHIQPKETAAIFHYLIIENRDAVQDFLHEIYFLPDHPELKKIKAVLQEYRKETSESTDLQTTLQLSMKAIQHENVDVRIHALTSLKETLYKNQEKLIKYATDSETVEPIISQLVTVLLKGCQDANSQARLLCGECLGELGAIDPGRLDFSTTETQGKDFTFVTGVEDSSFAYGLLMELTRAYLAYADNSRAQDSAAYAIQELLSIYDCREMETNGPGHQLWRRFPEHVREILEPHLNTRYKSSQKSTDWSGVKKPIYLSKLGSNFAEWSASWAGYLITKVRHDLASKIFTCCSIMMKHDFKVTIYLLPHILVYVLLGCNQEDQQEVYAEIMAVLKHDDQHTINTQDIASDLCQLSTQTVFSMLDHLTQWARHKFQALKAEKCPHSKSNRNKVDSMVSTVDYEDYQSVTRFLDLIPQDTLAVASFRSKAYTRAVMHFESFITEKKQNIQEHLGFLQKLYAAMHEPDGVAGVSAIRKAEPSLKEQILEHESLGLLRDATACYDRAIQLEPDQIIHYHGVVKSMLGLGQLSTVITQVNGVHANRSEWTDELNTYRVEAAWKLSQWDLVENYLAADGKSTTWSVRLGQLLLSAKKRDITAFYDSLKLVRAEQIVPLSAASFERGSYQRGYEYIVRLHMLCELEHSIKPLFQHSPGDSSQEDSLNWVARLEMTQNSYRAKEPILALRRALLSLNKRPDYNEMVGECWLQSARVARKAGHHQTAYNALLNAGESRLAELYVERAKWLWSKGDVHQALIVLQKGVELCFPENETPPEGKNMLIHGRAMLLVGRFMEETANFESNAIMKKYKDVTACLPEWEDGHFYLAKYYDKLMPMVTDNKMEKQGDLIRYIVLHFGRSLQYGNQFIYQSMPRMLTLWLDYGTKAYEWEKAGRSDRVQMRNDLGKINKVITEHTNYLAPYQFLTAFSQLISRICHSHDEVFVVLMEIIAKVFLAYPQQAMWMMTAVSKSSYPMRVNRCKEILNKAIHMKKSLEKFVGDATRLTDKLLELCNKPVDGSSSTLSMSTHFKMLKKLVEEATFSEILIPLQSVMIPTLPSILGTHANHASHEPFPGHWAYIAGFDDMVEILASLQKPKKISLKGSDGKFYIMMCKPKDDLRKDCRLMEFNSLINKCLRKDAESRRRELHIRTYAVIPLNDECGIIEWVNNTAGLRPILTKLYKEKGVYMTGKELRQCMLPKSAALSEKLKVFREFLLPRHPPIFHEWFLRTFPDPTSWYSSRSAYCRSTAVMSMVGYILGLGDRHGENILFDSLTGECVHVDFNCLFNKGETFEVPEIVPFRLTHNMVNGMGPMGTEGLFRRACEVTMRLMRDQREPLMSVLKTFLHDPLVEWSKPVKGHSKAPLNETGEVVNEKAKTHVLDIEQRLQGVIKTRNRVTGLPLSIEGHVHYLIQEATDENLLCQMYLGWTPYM

[2] = Metabolic stability in mouse liver microsomes assessed as compound remaining at 1 uM in presence of NADPH as cofactor measured after 30 mins by LC-MS/MS method; type: ADME, microsome; details: read-out: Stability
[3] = Metabolic stability in human liver microsomes assessed as compound remaining at 1 uM in presence of NADPH as cofactor measured after 30 mins by LC-MS/MS method; type: ADME, microsome; details: read-out: Stability
[4] = Metabolic stability in rat liver microsomes assessed as compound remaining at 1 uM in presence of NADPH as cofactor measured after 30 mins by LC-MS/MS method; type: ADME, microsome; details: read-out: Stability
[5] = target: Phosphatidylinositol 4,5-bisphosphate 3-kinase catalytic subunit delta isoform (Homo sapiens) (UniProt O00329); assay: Inhibition of PI3Kdelta (unknown origin) at 100 nM
Chain of Phosphatidylinositol 4,5-bisphosphate 3-kinase catalytic subunit delta isoform (Homo sapiens) (O00329 whole entry, canonical isoform): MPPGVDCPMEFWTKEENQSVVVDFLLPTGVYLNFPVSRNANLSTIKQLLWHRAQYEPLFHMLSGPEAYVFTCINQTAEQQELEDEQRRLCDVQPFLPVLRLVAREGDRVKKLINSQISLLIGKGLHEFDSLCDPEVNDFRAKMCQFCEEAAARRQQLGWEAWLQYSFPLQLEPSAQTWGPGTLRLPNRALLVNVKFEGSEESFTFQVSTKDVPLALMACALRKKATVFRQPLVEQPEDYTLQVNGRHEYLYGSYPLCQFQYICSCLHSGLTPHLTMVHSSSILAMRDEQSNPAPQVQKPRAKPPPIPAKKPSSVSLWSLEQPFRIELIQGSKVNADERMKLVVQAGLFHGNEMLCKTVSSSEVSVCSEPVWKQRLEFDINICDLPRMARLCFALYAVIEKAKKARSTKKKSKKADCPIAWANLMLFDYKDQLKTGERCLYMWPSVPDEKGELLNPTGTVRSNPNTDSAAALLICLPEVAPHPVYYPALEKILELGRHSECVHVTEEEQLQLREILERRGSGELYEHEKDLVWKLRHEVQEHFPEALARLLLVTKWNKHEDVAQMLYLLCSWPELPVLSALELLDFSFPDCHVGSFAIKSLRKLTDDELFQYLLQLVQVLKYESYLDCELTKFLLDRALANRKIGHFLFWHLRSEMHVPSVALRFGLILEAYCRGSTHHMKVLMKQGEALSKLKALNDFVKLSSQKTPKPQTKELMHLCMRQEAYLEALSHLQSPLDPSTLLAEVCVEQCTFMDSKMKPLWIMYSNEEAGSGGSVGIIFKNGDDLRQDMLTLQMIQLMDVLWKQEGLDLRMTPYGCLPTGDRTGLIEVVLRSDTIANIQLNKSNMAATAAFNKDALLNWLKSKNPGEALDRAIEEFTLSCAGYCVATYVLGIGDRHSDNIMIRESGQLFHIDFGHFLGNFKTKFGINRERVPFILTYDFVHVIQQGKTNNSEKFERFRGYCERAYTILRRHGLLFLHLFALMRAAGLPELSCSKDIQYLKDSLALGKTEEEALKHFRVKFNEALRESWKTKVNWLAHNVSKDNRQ

[6] = target: T1, Tyrosine-protein kinase BTK (Homo sapiens, UniProt Q06187); assay: Inhibition of BTK (unknown origin) at 100 nM
T1 sequence (Q06187 whole entry, canonical isoform): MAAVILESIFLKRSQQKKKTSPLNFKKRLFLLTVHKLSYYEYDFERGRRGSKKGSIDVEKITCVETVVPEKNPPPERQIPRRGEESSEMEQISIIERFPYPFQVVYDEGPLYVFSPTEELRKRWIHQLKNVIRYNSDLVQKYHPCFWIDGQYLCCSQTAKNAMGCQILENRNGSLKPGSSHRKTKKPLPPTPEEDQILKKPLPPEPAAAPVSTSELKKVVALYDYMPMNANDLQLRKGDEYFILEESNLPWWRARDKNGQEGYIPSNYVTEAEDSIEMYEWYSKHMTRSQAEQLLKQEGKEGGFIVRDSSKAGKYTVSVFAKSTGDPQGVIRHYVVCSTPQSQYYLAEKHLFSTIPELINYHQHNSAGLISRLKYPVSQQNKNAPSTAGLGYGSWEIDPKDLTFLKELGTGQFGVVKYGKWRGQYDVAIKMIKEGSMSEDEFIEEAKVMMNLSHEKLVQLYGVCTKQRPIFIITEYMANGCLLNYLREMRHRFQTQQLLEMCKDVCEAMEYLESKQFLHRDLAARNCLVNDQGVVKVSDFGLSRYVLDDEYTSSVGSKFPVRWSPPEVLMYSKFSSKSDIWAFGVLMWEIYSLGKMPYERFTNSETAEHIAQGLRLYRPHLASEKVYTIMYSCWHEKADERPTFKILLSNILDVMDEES

[7] = target: Phosphatidylinositol 4,5-bisphosphate 3-kinase catalytic subunit delta isoform (Homo sapiens, UniProt O00329); assay: Inhibition of PI3Kdelta (unknown origin)
Chain of Phosphatidylinositol 4,5-bisphosphate 3-kinase catalytic subunit delta isoform (O00329 whole entry, canonical isoform): as the sequence (O00329 whole entry, canonical isoform) above

[8] = target: T1, Tyrosine-protein kinase BTK; assay: Inhibition of BTK (unknown origin)

Structure (SMILES)	IC50 [1]	other results
Nc1ncnc2c1c(-c1cnc3[nH]ccc3c1)nn2C1Cc2ccccc2C1	654 nM	–
Nc1ncnc2c1c(-c1ccc(Br)c(O)c1)nn2C1Cc2ccccc2C1	3560 nM	–
CNCc1ccc(-c2cc(-c3nc(-c4ccc(S(=O)(=O)C(C)C)cc4)cnc3N)on2)cc1 [BERZOSERTIB]	–	remaining at 0.5 h, 1 µM [2]: 77%; remaining at 0.5 h, 1 µM [3]: 71%; remaining at 0.5 h, 1 µM [4]: 80%
Nc1ncnc2c1c(-c1cnc3[nH]ccc3c1)nn2C1CCc2ccccc2C1 (racemic) [listing 1 of 2 here]	–	inhibition [5]: 52%; inhibition [6]: 24%
c1ccc2c(c1)CCC(n1nc(-c3cnc4[nH]ccc4c3)c3cncnc31)C2 (racemic)	> 30000 nM	–
Nc1ncnc2c1c(-c1ccc(Br)c(O)c1)nn2C1CCc2ccccc21 (configuration not stated)	1860 nM	–
Cn1ccc2cc(-c3nn(C4CCc5ccccc5C4)c4ncnc(N)c34)cnc21 (racemic)	580 nM	–
Nc1ncnc2c1c(-c1c[nH]c3ncccc13)nn2C1CCc2ccccc2C1 (racemic)	> 30000 nM	–
Nc1ccc(-c2nn(C3CCc4ccccc4C3)c3ncnc(N)c23)cn1 (racemic)	19300 nM	–
Nc1ncnc2c1c(-c1cnc3[nH]ccc3c1)nn2C1CCCC1	1420 nM	–
CS(=O)(=O)N1CCC(n2nc(-c3cnc4[nH]ccc4c3)c3c(N)ncnc32)CC1	1320 nM	–

Continued, in another order:

IC50 [1]	Structure (SMILES)	other results
19100 nM	Nc1ncnc2c1c(-c1ccc(N3CCCC3)nc1)nn2C1CCc2ccccc2C1 (racemic)	–
304 nM	Nc1ncnc2c1c(-c1cnc3[nH]ccc3c1)nn2C1CCc2ccccc2C1 (stereo in doubt; 1)	–
158 nM	Nc1ncnc2c1c(-c1cnc3[nH]ccc3c1)nn2C1CCc2ccccc2C1 (stereo in doubt; 1')	–
1590 nM	Nc1ncnc2c1c(-c1ccc3[nH]ccc3c1)nn2C1CCc2ccccc2C1 (racemic)	–
212 nM	Nc1ncnc2c1c(-c1cnc3[nH]ccc3c1)nn2C1CCc2ccccc2C1 (racemic) [listing 2 of 2 here]	–
547 nM and 269 nM	Nc1nc2c(s1)CC(n1nc(-c3cnc4[nH]ccc4c3)c3c(N)ncnc31)CC2 (configuration not stated)	–
> 30000 nM	Nc1ncnc2c1c(-c1cccnc1)nn2C1CCc2ccccc2C1 (racemic)	–
4620 nM	Nc1ncnc2c1c(-c1cnc3cc[nH]c3c1)nn2C1CCc2ccccc2C1 (racemic)	–
2630 nM	Nc1nc2c(s1)CC(n1nc(-c3cc(F)c4[nH]ccc4c3)c3c(N)ncnc31)CC2 (configuration not stated)	IC50 [7]: 307 nM; IC50 [8]: 22 nM
22400 nM	Nc1ncnc2c1c(-c1cnc3[nH]c(=O)ccc3c1)nn2C1CCc2ccccc2C1 (racemic)	–
> 30000 nM	Nc1ccnc2c1c(-c1cnc3[nH]ccc3c1)nn2C1CCc2ccccc2C1 (racemic)	–
